Source: patent publication US10342779B2 (Therapicon S.R.L., priority 2014, dated 2019)
Where two headings read alike, the source gives them in different places.

Legend:
[1] = cited from earlier work
[2] = dogs, oral 10 mg/kg; cited from earlier work
CYP1A2 = target: T1, CYP1A2 (Homo sapiens, UniProt P05177); conditions: cited from earlier work
T1 sequence (P05177 1-516): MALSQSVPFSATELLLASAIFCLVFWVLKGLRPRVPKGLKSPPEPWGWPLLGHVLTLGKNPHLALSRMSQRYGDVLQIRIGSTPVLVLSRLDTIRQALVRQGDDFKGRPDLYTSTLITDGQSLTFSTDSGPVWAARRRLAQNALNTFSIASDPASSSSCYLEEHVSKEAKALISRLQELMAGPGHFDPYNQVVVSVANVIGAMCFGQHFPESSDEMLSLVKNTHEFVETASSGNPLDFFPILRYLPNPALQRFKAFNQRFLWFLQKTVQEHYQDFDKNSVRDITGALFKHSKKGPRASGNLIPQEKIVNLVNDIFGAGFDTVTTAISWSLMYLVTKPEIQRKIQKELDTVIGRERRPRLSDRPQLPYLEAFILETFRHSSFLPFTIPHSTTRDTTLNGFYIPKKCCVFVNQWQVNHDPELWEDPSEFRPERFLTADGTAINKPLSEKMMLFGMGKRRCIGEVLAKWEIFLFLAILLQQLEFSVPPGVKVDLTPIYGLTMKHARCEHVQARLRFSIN

[3] = monkey, intravenous 3 mg/kg; cited from earlier work
[4] = cited from earlier work; remark: listed apart in the source
[5] = dog, intravenous 3 mg/kg; cited from earlier work
[6] = rats, oral 10 mg/kg; cited from earlier work
[7] = man, intravenous administration; cited from earlier work
[8] = rat, injected 5 mg/kg; cited from earlier work
[9] = monkeys, oral 10 mg/kg; cited from earlier work
[10] = tested on: mouse-adapted DENV-2 strain D2S10; conditions: for Survival at day 20: IV, 19 days after challenge

Compound: COc1ccc2[nH]cc(CCNC(C)=O)c2c1 [Melatonin, N-acetyl-5-methoxytryptamine]
- median (range) elimination half life ([1]; healthy volunteers, oral capsules 20, 30, 50, 100 mg, across all doses): 51.7 (29.5-63.2) minutes
- unchanged melatonin renal clearance ([1]; human): lower than 1%
- time of rapid decrease in serum melatonin ([1]; oral 3 mg/volunteer): 240 min
- time to increase in serum melatonin after oral administration ([1]; oral 3 mg/volunteer): ≤ 20 min
- half-life in blood ([1]; oral 100 mg): around 41 minutes
- time to maximum blood and saliva concentrations ([1]; oral 100 mg): 60 min
- AUC ([1]; oral capsules 20 mg): 1102 to 13616 ng/mL/min
- AUC ([1]; oral capsules 30 mg): 822 to 2491 ng/mL/min
- AUC ([1]; oral capsules 50 mg): 1812 to 8915 ng/mL/min
- AUC ([1]; oral capsules 100 mg): 4458 to 18229 ng/mL/min
- absolute human bioavailability, average ([1]; oral, female): 8.6%
- absolute human bioavailability, average ([1]; oral, male): 16.8%
- absolute human bioavailability, range ([1]; oral): 1-37%
- inter-subject variation of AUC of individual subjects ([1]; oral): up to 25 times
- absolute bioavailability [2]: high
- enzyme mediating 6-hydroxylation and O-demethylation (CYP1A2): mainly CYP1A2 mediated
- apparent elimination half-life [3]: 33.9 min
- solubility in water [4]: 1200 to 2400 µg/mL
- apparent elimination half-life [5]: 18.6 min
- absolute bioavailability [6]: moderate
- elimination half-life [7]: about 40 minutes
- apparent elimination half-life [8]: 19.8 min
- absolute bioavailability [9]: high
- Survival at day 20 ([10]; 75 mg/kg body weight): 4/6
- Survival at day 20 ([10]; 100 mg/kg body weight): 6/6
- Survival at day 20 ([10]; 150 mg/kg body weight): 6/6
- protection effects versus Dengue virus induced condition ([10]; 100 and 150 mg/Kg/day, 19 days treatment): Complete survival
